ChEMBL document CHEMBL2440076, “New triarylpyrazoles as broad-spectrum anticancer agents: design, synthesis, and biological evaluation” (Eur J Med Chem, 2013)

Legend:
Type in all cases: functional
786-0 [1] = assay: Growth inhibition of human 786-0 cells assessed as cell growth at 5X10'-6 M after 48 hrs by sulforhodamine B assay; settings: 786-0, 48 h, read-out: Activity
786-0 [2] = assay: Growth inhibition of human 786-0 cells assessed as cell growth at 5X10'-8 M after 48 hrs by sulforhodamine B assay; settings: 786-0, 48 h, read-out: Activity
MDA-MB-231 = assay: Growth inhibition of human MDA-MB-231 cells assessed as cell growth at 5X10'-9 M after 48 hrs by sulforhodamine B assay; settings: MDA-MB-231, 48 h, read-out: Activity
U-251 [3] = assay: Growth inhibition of human U251 cells assessed as cell growth at 5X10'-8 M after 48 hrs by sulforhodamine B assay; settings: U-251, 48 h, read-out: Activity
OVCAR-3 [4] = assay: Growth inhibition of human OVCAR3 cells assessed as cell growth at 5X10'-5 M after 48 hrs by sulforhodamine B assay; settings: OVCAR-3, 48 h, read-out: Activity
ACHN [5] = assay: Growth inhibition of human ACHN cells assessed as cell growth at 5X10'-8 M after 48 hrs by sulforhodamine B assay; settings: read-out: Activity
SK-MEL-5 [6] = assay: Growth inhibition of human SK-MEL-5 cells assessed as cell growth at 5X10'-6 M after 48 hrs by sulforhodamine B assay; settings: SK-MEL-5, 48 h, read-out: Activity
TK-10 = assay: Growth inhibition of human TK10 cells assessed as cell growth at 5X10'-5 M after 48 hrs by sulforhodamine B assay; settings: TK-10, 48 h, read-out: Activity
HOP-62 = assay: Growth inhibition of human HOP62 cells assessed as cell growth at 5X10'-6 M after 48 hrs by sulforhodamine B assay; settings: HOP-62, 48 h, read-out: Activity
MOLT-4 [7] = assay: Growth inhibition of human MOLT4 cells assessed as cell growth at 5X10'-7 M after 48 hrs by sulforhodamine B assay; settings: MOLT-4, 48 h, read-out: Activity
NCI-H460 = assay: Growth inhibition of human NCI-H460 cells assessed as cell growth at 5X10'-5 M after 48 hrs by sulforhodamine B assay; settings: NCI-H460, 48 h, read-out: Activity
OVCAR-8 = assay: Growth inhibition of human OVCAR8 cells assessed as cell growth at 5X10'-8 M after 48 hrs by sulforhodamine B assay; settings: OVCAR-8, 48 h, read-out: Activity
OVCAR-4 = assay: Growth inhibition of human OVCAR4 cells assessed as cell growth at 5X10'-8 M after 48 hrs by sulforhodamine B assay; settings: OVCAR-4, 48 h, read-out: Activity
HCT-15 = assay: Growth inhibition of human HCT15 cells assessed as cell growth at 5X10'-6 M after 48 hrs by sulforhodamine B assay; settings: HCT-15, 48 h, read-out: Activity
DU-145 = assay: Growth inhibition of human DU145 cells assessed as cell growth at 5X10'-8 M after 48 hrs by sulforhodamine B assay; settings: DU-145, 48 h, read-out: Activity
HOP-92 [8] = assay: Growth inhibition of human HOP92 cells assessed as cell growth at 5X10'-9 M after 48 hrs by sulforhodamine B assay; settings: HOP-92, 48 h, read-out: Activity
SK-MEL-5 [9] = assay: Growth inhibition of human SK-MEL-5 cells assessed as cell growth at 5X10'-9 M after 48 hrs by sulforhodamine B assay; settings: SK-MEL-5, 48 h, read-out: Activity
A498 = assay: Growth inhibition of human A498 cells assessed as cell growth at 5X10'-7 M after 48 hrs by sulforhodamine B assay; settings: A498, 48 h, read-out: Activity
UO-31 = assay: Growth inhibition of human UO31 cells assessed as cell growth at 5X10'-8 M after 48 hrs by sulforhodamine B assay; settings: UO-31, 48 h, read-out: Activity
ACHN [10] = assay: Growth inhibition of human ACHN cells assessed as cell growth at 5X10'-7 M after 48 hrs by sulforhodamine B assay; settings: read-out: Activity
PC-3 = assay: Growth inhibition of human PC3 cells assessed as cell growth at 5X10'-9 M after 48 hrs by sulforhodamine B assay; settings: PC-3, 48 h, read-out: Activity
HOP-92 [11] = assay: Growth inhibition of human HOP92 cells assessed as cell growth at 5X10'-6 M after 48 hrs by sulforhodamine B assay; settings: HOP-92, 48 h, read-out: Activity
SF-539 = assay: Growth inhibition of human SF539 cells assessed as cell growth at 5X10'-7 M after 48 hrs by sulforhodamine B assay; settings: SF-539, 48 h, read-out: Activity
U-251 [12] = assay: Growth inhibition of human U251 cells assessed as cell growth at 5X10'-9 M after 48 hrs by sulforhodamine B assay; settings: U-251, 48 h, read-out: Activity
MOLT-4 [13] = assay: Growth inhibition of human MOLT4 cells assessed as cell growth at 5X10'-8 M after 48 hrs by sulforhodamine B assay; settings: MOLT-4, 48 h, read-out: Activity
[14] = Growth inhibition of human Hs 578T cells assessed as cell growth at 5X10'-9 M after 48 hrs by sulforhodamine B assay; settings: read-out: Activity
SK-OV-3 = assay: Growth inhibition of human SKOV3 cells assessed as cell growth at 5X10'-7 M after 48 hrs by sulforhodamine B assay; settings: SK-OV-3, 48 h, read-out: Activity
NCI-H23 = assay: Growth inhibition of human NCI-H23 cells assessed as cell growth at 5X10'-8 M after 48 hrs by sulforhodamine B assay; settings: NCI-H23, 48 h, read-out: Activity
HT-29 [15] = assay: Growth inhibition of human HT-29 cells assessed as cell growth at 5X10'-6 M after 48 hrs by sulforhodamine B assay; settings: HT-29, 48 h, read-out: Activity
HT-29 [16] = assay: Growth inhibition of human HT-29 cells assessed as cell growth at 5X10'-8 M after 48 hrs by sulforhodamine B assay; settings: HT-29, 48 h, read-out: Activity
NCI-H522 [17] = assay: Growth inhibition of human NCI-H522 cells assessed as cell growth at 5X10'-9 M after 48 hrs by sulforhodamine B assay; settings: NCI-H522, 48 h, read-out: Activity
M14 = assay: Growth inhibition of human M14 cells assessed as cell growth at 5X10'-9 M after 48 hrs by sulforhodamine B assay; settings: M14, 48 h, read-out: Activity
OVCAR-3 [18] = assay: Growth inhibition of human OVCAR3 cells assessed as cell growth at 5X10'-6 M after 48 hrs by sulforhodamine B assay; settings: OVCAR-3, 48 h, read-out: Activity
NCI-H522 [19] = assay: Growth inhibition of human NCI-H522 cells assessed as cell growth at 5X10'-8 M after 48 hrs by sulforhodamine B assay; settings: NCI-H522, 48 h, read-out: Activity
[20] = Growth inhibition of human Hs 578T cells assessed as cell growth at 5X10'-6 M after 48 hrs by sulforhodamine B assay; settings: read-out: Activity
NCI-H522 [21] = assay: Growth inhibition of human NCI-H522 cells assessed as cell growth at 5X10'-7 M after 48 hrs by sulforhodamine B assay; settings: NCI-H522, 48 h, read-out: Activity
LOX IMVI = assay: Growth inhibition of human LOXIMVI cells assessed as cell growth at 5X10'-6 M after 48 hrs by sulforhodamine B assay; settings: read-out: Activity

**Q.** Which growth at 5 µM (786-0 [1]) does the source give for COc1cc(-c2nn(-c3cccc(NC(=O)Nc4cc(C(F)(F)F)cc(C(F)(F)F)c4)c3)cc2-c2ccncc2)ccc1Cl here?
**A.** -60%

**Q.** And the growth at 0.05 µM (786-0 [2])?
**A.** 102%

**Q.** And the growth at 0.005 µM (MDA-MB-231)?
**A.** 101%

**Q.** And the growth at 0.05 µM (U-251 [3])?
**A.** 94%

**Q.** What about the growth at 50 µM (OVCAR-3 [4]) of the same molecule?
**A.** -78%

**Q.** What about the growth at 0.05 µM (ACHN [5]) of the same molecule?
**A.** 100%

**Q.** And the growth at 5 µM (SK-MEL-5 [6])?
**A.** -96%

**Q.** And the growth at 50 µM (TK-10)?
**A.** -86%

**Q.** And the growth at 5 µM (HOP-62)?
**A.** -92%

**Q.** And the growth at 0.5 µM (MOLT-4 [7])?
**A.** 77%

**Q.** And the growth at 50 µM (NCI-H460)?
**A.** -59%

**Q.** What about the growth at 0.05 µM (OVCAR-8) of the same molecule?
**A.** 97%

**Q.** And the growth at 0.05 µM (OVCAR-4)?
**A.** 92%

**Q.** And the growth at 5 µM (HCT-15)?
**A.** -57%

**Q.** And the growth at 0.05 µM (DU-145)?
**A.** 111%

**Q.** And the growth at 0.005 µM (HOP-92 [8])?
**A.** 77%

**Q.** And the growth at 0.005 µM (SK-MEL-5 [9])?
**A.** 99%

**Q.** And the growth at 0.5 µM (A498)?
**A.** 59%

**Q.** And the growth at 0.05 µM (UO-31)?
**A.** 94%

**Q.** What about the growth at 0.5 µM (ACHN [10]) of the same molecule?
**A.** 50%

**Q.** What about the growth at 0.005 µM (PC-3) of the same molecule?
**A.** 92%

**Q.** What about the growth at 5 µM (HOP-92 [11]) of the same molecule?
**A.** -52%

**Q.** And the growth at 0.5 µM (SF-539)?
**A.** 85%

**Q.** And the growth at 0.005 µM (U-251 [12])?
**A.** 97%

**Q.** What about the growth at 0.05 µM (MOLT-4 [13]) of the same molecule?
**A.** 105%

**Q.** What about the growth at 0.005 µM [14] of the same molecule?
**A.** 96%

**Q.** What about the growth at 0.5 µM (SK-OV-3) of the same molecule?
**A.** 95%

**Q.** What about the growth at 0.05 µM (NCI-H23) of the same molecule?
**A.** 100%

**Q.** And the growth at 5 µM (HT-29 [15])?
**A.** -68%

**Q.** What about the growth at 0.05 µM (HT-29 [16]) of the same molecule?
**A.** 108%

**Q.** What about the growth at 0.005 µM (NCI-H522 [17]) of the same molecule?
**A.** 102%

**Q.** And the growth at 0.005 µM (M14)?
**A.** 105%

**Q.** What about the growth at 5 µM (OVCAR-3 [18]) of the same molecule?
**A.** -69%

**Q.** What about the growth at 0.05 µM (NCI-H522 [19]) of the same molecule?
**A.** 103%

**Q.** What about the growth at 5 µM [20] of the same molecule?
**A.** -12%

**Q.** And the growth at 0.5 µM (NCI-H522 [21])?
**A.** 60%

**Q.** What about the growth at 5 µM (LOX IMVI) of the same molecule?
**A.** -90%
